The values below come from ChEMBL document CHEMBL3886958, “Substituted B-amino acid derivatives as CXCR3 receptor antagonists” (2016).

Each structure is given as a SMILES string.

The target of the assay is T1, C-X-C chemokine receptor type 3 (Homo sapiens, UniProt P49682).
T1 sequence (P49682 whole entry): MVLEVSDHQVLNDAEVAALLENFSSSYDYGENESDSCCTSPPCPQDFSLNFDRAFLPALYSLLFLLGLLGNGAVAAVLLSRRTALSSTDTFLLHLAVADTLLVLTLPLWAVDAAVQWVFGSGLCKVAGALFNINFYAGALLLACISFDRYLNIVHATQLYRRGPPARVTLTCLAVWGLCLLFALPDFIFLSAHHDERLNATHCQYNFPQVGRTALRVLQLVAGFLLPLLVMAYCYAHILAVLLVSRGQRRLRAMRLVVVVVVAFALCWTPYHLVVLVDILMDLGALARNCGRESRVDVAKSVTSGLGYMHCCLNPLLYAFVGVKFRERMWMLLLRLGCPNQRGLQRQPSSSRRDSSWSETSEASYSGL
As to `CCOC(=O)CC(c1ccc2c(c1)CCO2)N(Cc1ccc(OCCN2C(=O)CCC2=O)c(OC)c1)CC(C)C` (centres undefined), the IC50 turned out to be 686 nM. For `CCN(Cc1ccc(OCCN2C(=O)CCC2=O)c(OC)c1)C(c1ccc(Cl)cc1)C(C)(C)C(=O)O` (centres undefined), the IC50 amounted to 295 nM. For `COc1cc(CN(CC2CCCC2)C(C(=O)O)c2ccc(Cl)cc2)ccc1OCCN1C(=O)CCC1=O` (centres undefined), the IC50 turned out to be 467 nM.

The compound `COc1cc(CN(CC2CCCCC2)[C@@H](CC(=O)O)c2ccc(Cl)c(Cl)c2)ccc1OCCN1C(=O)CN(C)C1=O` came in with an IC50 of 187 nM.

Take `COc1cc(CN(CC2CCCC2)C(CC(=O)O)c2ccc(Cl)cc2)ccc1CCCN1C(=O)CCC1=O` (centres undefined): it took 179 nM to reach half-maximal inhibition (IC50). To `CCCN(Cc1ccc(OCCN2C(=O)CCC2=O)c(CC)c1)C(CC(=O)O)c1ccc(Cl)c(Cl)c1` (centres undefined) belongs 81 nM. `COc1cc(CN(CC2CC2)C(CC(=O)O)c2ccc(Cl)c(F)c2)ccc1SCCN1C(=O)CCC1=O` (centres undefined) gave an IC50 of 40 nM.

The compound `CCCN(Cc1ccc(OCCN2C(=O)CCC2=O)c(OC)c1)[C@H](C(=O)O)c1ccc(Cl)c(Cl)c1` had an IC50 of 495 nM.

Compound `O=C(O)CC(c1ccc(Cl)c(Cl)c1)N(Cc1ccc(OCCN2C(=O)CCC2=O)c(F)c1)CC1CCCCC1` (centres undefined) yielded an IC50 of 435 nM.
